Values after ≈ are worked out from the molar mass of the structure shown. Like-named read-outs stand apart in the source and are kept apart here.
Key:
[1] = system: Abbott Diagnostics Axsym carbamazepine immunoassay; conditions: cited from earlier work
[2] = system: monoclonal antibody of CBZ immunoassay; conditions: cited from earlier work
[3] = system: antiserum raised to Immunogen II; experiment: Competitive ELISA, antibody characterisation; format: binding, sheep; conditions: for % Cross-reactivity: CR based on 100% for carbamazepine, IC50 carbamazepine/IC50 CR x 100; for IC50: antiserum raised to Immunogen II, detecting agent derived from Hapten-A, competitive assay format
Method: The antibody titre is evaluated by coating a microtitre plate (Thermo Fisher Scientific NUNC, 468667) with antibody (125 μl/well) in coating buffer (10 mM Tris pH 8.5) at 37° C. for 2 hours. The plate is then washed 4 times over 10 minutes with working strength TBST. 50 μl of sample/standard (Carbamazepine, Sigma C4024) is added to the appropriate wells in triplicate, followed by 75 μl of hapten-HRP conjugate and incubated at 25° C. for 1 hour. The plate is then washed and 125 μl of TMB (Randox, 4380-15) added to each well and left at room temperature for 20 mins in the dark. The reaction is stopped using 125 μl of 0.2M sulphuric acid. The absorbances are read at 450 nm with an ELISA microplate reader (BIO-TEK Instruments, Elx800) and the means calculated. Antibody sensitivity can then be determined. […] The immunogenic mixture (1 ml) was administered to adult sheep on a monthly basis to provide target-specific polyclonal antisera. IgG was extracted from the antisera via caprylic acid/ammonium sulphate precipitation of immunoglobulin. A microtitre plate (Thermo Fisher Scientific NUNC, 468667) was coated with antibody (125 μl/well) in coating buffer (10 mM Tris pH 8.5) at 37° C. for 2 hours. […] The plate was then washed and 125 μl of TMB (Randox, 4380-15) was added to each well and left at room temperature for 20 mins in the dark. The reaction was stopped using 125 μl of 0.2M sulphuric acid. The absorbances were read at 450 nm with an ELISA microplate reader (BIO-TEK Instruments, Elx800) and the means calculated. Antibody specificity and sensitivity were then determined. […] The results of this study are presented in Table 2, cross-reactivity being calculated according to the following formula: % CR=IC50. carbamazepine/IC50. CR×100 […] CR is the concentration of carbamazepine/metabolites/structurally-related molecules that causes 50% displacement of signal.

[4] = system: Roche Diagnostics Online TDM carbamazepine immunoassay; conditions: at 6 μg/ml of carbamazepine; cited from earlier work
[5] = system: Beckman Coulter (BC) carbamazepine immunoassay; conditions: Beckman Coulter BC analyzers; cited from earlier work
[6] = cited from earlier work
[7] = cited from earlier work; remark: listed apart in the source
[8] = system: Siemens ADVIA carbamazepine immunoassay; conditions: cited from earlier work

Structure (SMILES) | % Cross-reactivity [3] | IC50 [3] | Cross-reactivity [5] | other results
CNCCCN1c2ccccc2CCc2ccccc21 [Desipramine] | – | – | – | Cross-reactivity [1]: ≦540.0%
NC(=O)N1c2ccccc2CC(=O)c2ccccc21 [Oxcarbazepine, oxcarbazepine] | 299.00% | 0.714 ng/mL (≈ 0.00283 µM) | – | Cross-reactivity [2]: negligible; Cross-reactivity [4]: 1.0%
CN(C)CCCN1c2ccccc2CCc2ccccc21 [Imipramine, imipramine] | <<1.10% | >>200 ng/ml | 5.6% | –
CN1C(=O)CN=C(c2ccccc2)c2cc(Cl)ccc21 [Diazepam] | – | – | 4.8% | –
NC(=O)N1c2ccccc2C=Cc2ccccc21 [CBZ, carbamazepine] | 100.00% | 2.135 ng/mL (≈ 0.00904 µM) | – | half-life ([6]; in patients): 18 to 65 h; toxic value ([7]; free carbamazepine): > 4.00 µg/mL; toxic value ([7]; total carbamazepine): greater than 12.00 μg/ml
CN(C)CCC=C1c2ccccc2CCc2ccccc21 [Amitriptyline, amitriptyline] | <<1.10% | >>200 ng/ml | 18.6% | Cross-reactivity [8]: 5.2%
c1ccc2c(c1)Nc1ccccc1S2 [Phenothiazine] | – | – | 8.6% | –
CNCCC=C1c2ccccc2CCc2ccccc21 [Nortryptyline] | – | – | 17.2% | Cross-reactivity [8]: 5.2%
NC(=O)N1c2ccccc2CC(O)c2ccccc21 (centres unmarked) [Hapten 10-OH-CBZ, 10,11-dihydro-10-hydroxycarbazepine] | 67.40% | 3.167 ng/mL (≈ 0.0125 µM) | – | Cross-reactivity [2]: negligible; Cross-reactivity [4]: 1.2%
NC(=O)N1c2ccccc2C2OC2c2ccccc21 (centres unmarked) [CBZ-E, carbamazepine-10,11-epoxide] | 68.30% | 3.125 ng/mL (≈ 0.0124 µM) | 7.4% | Cross-reactivity [8]: 21.8%; Cross-reactivity [1]: ≦83.0%; Cross-reactivity [4]: 14.0%
NC(=O)N1c2ccccc2C(O)C(O)c2ccccc21 (centres unmarked) [10,11-diOH-CBZ, 10,11-dihydro-10,11-dihydroxycarbamazepine] | 14.00% | 15.269 ng/mL (≈ 0.0565 µM) | – | Cross-reactivity [2]: negligible; major urinary excretory product ([6]; of CBZ, urine): 80%

Reference: patent US8735556B2, “Sensitive and generic antibodies and multiple applications” (Randox Laboratories Limited, priority 2011, dated 2014)
